Test results: the NIST ThermoML archive (doi:10.1016/j.fluid.2005.06.010)

Experiment: xn = mol fraction of the nth substance listed
Details: Fluid (supercritical or subcritical phases), Vibrating tube method

c1ccc2ccccc2c1 [naphthalene] + O=C=O
Details	mass density [kg/m3]
323.07 K, 21967 kPa, x1 = 0.0049	814.97
323.07 K, 21991 kPa, x1 = 0.0235	840.23
323.07 K, 22035 kPa, x1 = 0.0093	823.39
323.07 K, 22055 kPa, x1 = 0.0144	828.6
323.07 K, 23011 kPa, x1 = 0.0144	836.78
323.07 K, 23014 kPa, x1 = 0.0049	824.8
323.07 K, 23024 kPa, x1 = 0.0235	848.46
323.07 K, 23037 kPa, x1 = 0.0093	832.27
323.07 K, 23975 kPa, x1 = 0.0144	844.56
323.07 K, 24012 kPa, x1 = 0.0235	855.79
323.07 K, 24013 kPa, x1 = 0.0093	840.35
323.07 K, 24015 kPa, x1 = 0.0049	833.51
323.07 K, 25007 kPa, x1 = 0.0235	862.81
323.07 K, 25048 kPa, x1 = 0.0093	848.36
323.08 K, 12879 kPa, x1 = 0.0173	702.14
323.08 K, 13019 kPa, x1 = 0.0173	705.93
323.08 K, 13536 kPa, x1 = 0.0173	719.07
323.08 K, 14042 kPa, x1 = 0.0173	730.6
323.08 K, 15088 kPa, x1 = 0.0173	750.8
323.08 K, 16012 kPa, x1 = 0.0173	766
323.08 K, 17038 kPa, x1 = 0.0173	780.79
323.08 K, 18011 kPa, x1 = 0.0173	793.15
323.08 K, 19021 kPa, x1 = 0.0173	804.74
323.08 K, 20018 kPa, x1 = 0.0173	815.17
323.08 K, 21012 kPa, x1 = 0.0173	824.64
323.08 K, 22051 kPa, x1 = 0.0173	833.83
323.08 K, 23040 kPa, x1 = 0.0173	842.05
323.08 K, 24014 kPa, x1 = 0.0173	849.58
323.08 K, 24688 kPa, x1 = 0.0173	854.56
323.11 K, 11710 kPa, x1 = 0.0065	608.68
323.11 K, 11886 kPa, x1 = 0.0065	618.53
323.11 K, 12112 kPa, x1 = 0.0065	630.1
323.11 K, 12597 kPa, x1 = 0.0065	651.76
323.11 K, 13175 kPa, x1 = 0.0065	672.88
323.11 K, 14114 kPa, x1 = 0.0065	700.29
323.11 K, 14946 kPa, x1 = 0.0065	719.89
323.11 K, 15974 kPa, x1 = 0.0065	740.17
323.11 K, 17091 kPa, x1 = 0.0065	758.86
323.11 K, 18018 kPa, x1 = 0.0065	772.31
323.11 K, 19119 kPa, x1 = 0.0065	786.49
323.11 K, 19947 kPa, x1 = 0.0065	796.13
323.11 K, 21027 kPa, x1 = 0.0065	807.77
323.11 K, 22102 kPa, x1 = 0.0065	818.31
323.11 K, 23244 kPa, x1 = 0.0065	828.6
323.11 K, 23905 kPa, x1 = 0.0065	834.23
323.11 K, 24345 kPa, x1 = 0.0065	837.73
323.13 K, 10131 kPa, x1 = 0.0038	441.7
323.13 K, 10204 kPa, x1 = 0.0038	452.21
323.13 K, 10370 kPa, x1 = 0.0038	473.73
323.13 K, 10546 kPa, x1 = 0.0038	495.19
323.13 K, 10713 kPa, x1 = 0.0038	513.93
323.13 K, 10899 kPa, x1 = 0.0038	532.86
323.13 K, 11125 kPa, x1 = 0.0038	553.43
323.13 K, 11428 kPa, x1 = 0.0038	577.02
323.13 K, 11636 kPa, x1 = 0.0038	591
323.13 K, 11975 kPa, x1 = 0.0038	610.86
323.13 K, 12255 kPa, x1 = 0.0038	625.25
323.13 K, 12628 kPa, x1 = 0.0038	641.9
323.13 K, 13011 kPa, x1 = 0.0038	656.88
323.13 K, 13569 kPa, x1 = 0.0038	675.56
323.13 K, 14021 kPa, x1 = 0.0038	688.77
323.13 K, 15003 kPa, x1 = 0.0038	713.06
323.13 K, 16030 kPa, x1 = 0.0038	733.89
323.13 K, 17020 kPa, x1 = 0.0038	750.95
323.13 K, 18020 kPa, x1 = 0.0038	766.06
323.13 K, 19025 kPa, x1 = 0.0038	779.54
323.13 K, 20018 kPa, x1 = 0.0038	791.52
323.13 K, 21018 kPa, x1 = 0.0038	802.54
323.13 K, 22016 kPa, x1 = 0.0038	812.65
323.13 K, 23026 kPa, x1 = 0.0038	822.13
323.13 K, 24020 kPa, x1 = 0.0038	830.83
323.13 K, 25003 kPa, x1 = 0.0038	838.9
327.94 K, 14128 kPa, x1 = 0.0198	700.18
327.94 K, 15025 kPa, x1 = 0.0198	721
327.94 K, 15984 kPa, x1 = 0.0198	739.45
327.94 K, 17037 kPa, x1 = 0.0198	756.72
327.94 K, 18024 kPa, x1 = 0.0198	770.78
327.94 K, 18966 kPa, x1 = 0.0198	782.81
327.94 K, 20021 kPa, x1 = 0.0198	794.93
327.94 K, 21050 kPa, x1 = 0.0198	805.66
327.94 K, 22039 kPa, x1 = 0.0198	815.2
327.94 K, 22982 kPa, x1 = 0.0198	823.62
327.94 K, 24044 kPa, x1 = 0.0198	832.44
327.94 K, 25048 kPa, x1 = 0.0198	840.3
327.98 K, 20991 kPa, x1 = 0.0276	810.47
327.98 K, 22012 kPa, x1 = 0.0276	819.85
327.98 K, 23092 kPa, x1 = 0.0276	829.12
327.98 K, 23996 kPa, x1 = 0.0276	836.33
327.98 K, 24882 kPa, x1 = 0.0276	843.08
327.99 K, 11253 kPa, x1 = 0.0049	476.13
327.99 K, 11541 kPa, x1 = 0.0049	502.2
327.99 K, 12000 kPa, x1 = 0.0049	538.29
327.99 K, 13016 kPa, x1 = 0.0049	598.5
327.99 K, 14020 kPa, x1 = 0.0049	639.93
327.99 K, 15009 kPa, x1 = 0.0049	671.01
327.99 K, 16051 kPa, x1 = 0.0049	696.96
327.99 K, 16996 kPa, x1 = 0.0049	716.42
327.99 K, 18024 kPa, x1 = 0.0049	734.62
327.99 K, 18955 kPa, x1 = 0.0394	812.97
327.99 K, 19015 kPa, x1 = 0.0049	750.05
327.99 K, 19491 kPa, x1 = 0.0394	818.42
327.99 K, 20015 kPa, x1 = 0.0394	823.07
327.99 K, 20048 kPa, x1 = 0.0049	764.24
327.99 K, 20960 kPa, x1 = 0.0394	831.55
327.99 K, 21025 kPa, x1 = 0.0049	776.39
327.99 K, 22010 kPa, x1 = 0.0394	840.78
327.99 K, 22049 kPa, x1 = 0.0049	788
327.99 K, 23023 kPa, x1 = 0.0049	798.13
327.99 K, 23040 kPa, x1 = 0.0394	848.69
327.99 K, 24009 kPa, x1 = 0.0394	855.98
327.99 K, 24079 kPa, x1 = 0.0049	808.33
327.99 K, 24881 kPa, x1 = 0.0394	861.95
328 K, 12017 kPa, x1 = 0.0093	567.42
328 K, 12517 kPa, x1 = 0.0093	596.95
328 K, 12987 kPa, x1 = 0.0173	652.9
328 K, 13018 kPa, x1 = 0.0144	638.84
328 K, 13022 kPa, x1 = 0.0093	621.23
328 K, 13497 kPa, x1 = 0.0144	656.68
328 K, 13513 kPa, x1 = 0.0173	670.93
328 K, 13916 kPa, x1 = 0.0235	697.69
328 K, 14000 kPa, x1 = 0.0144	672.81
328 K, 14016 kPa, x1 = 0.0173	685.86
328 K, 14033 kPa, x1 = 0.0093	659.25
328 K, 14510 kPa, x1 = 0.0235	712.23
328 K, 14988 kPa, x1 = 0.0235	722.58
328 K, 15031 kPa, x1 = 0.0173	710.98
328 K, 15041 kPa, x1 = 0.0093	688.02
328 K, 15044 kPa, x1 = 0.0144	700.6
328 K, 16003 kPa, x1 = 0.0235	741.93
328 K, 16024 kPa, x1 = 0.0093	710.6
328 K, 16029 kPa, x1 = 0.0173	731.18
328 K, 16033 kPa, x1 = 0.0144	721.87
328 K, 17009 kPa, x1 = 0.0144	739.63
328 K, 17031 kPa, x1 = 0.0093	730
328 K, 17033 kPa, x1 = 0.0173	748.41
328 K, 17036 kPa, x1 = 0.0235	758.59
328 K, 18019 kPa, x1 = 0.0235	772.44
328 K, 18021 kPa, x1 = 0.0144	755.54
328 K, 18047 kPa, x1 = 0.0173	763.56
328 K, 18057 kPa, x1 = 0.0093	747.01
328 K, 19027 kPa, x1 = 0.0235	785.16
328 K, 19029 kPa, x1 = 0.0173	776.56
328 K, 19034 kPa, x1 = 0.0144	769.62
328 K, 19042 kPa, x1 = 0.0093	761.34
328 K, 20006 kPa, x1 = 0.0093	774.02
328 K, 20013 kPa, x1 = 0.0173	788.3
328 K, 20015 kPa, x1 = 0.0235	796.35
328 K, 20048 kPa, x1 = 0.0144	782.23
328 K, 21013 kPa, x1 = 0.0093	785.89
328 K, 21023 kPa, x1 = 0.0235	806.8
328 K, 21036 kPa, x1 = 0.0173	799.42
328 K, 21043 kPa, x1 = 0.0144	793.46
328 K, 22023 kPa, x1 = 0.0235	816.35
328 K, 22030 kPa, x1 = 0.0144	803.66
328 K, 22034 kPa, x1 = 0.0093	796.9
328 K, 22064 kPa, x1 = 0.0173	809.6
328 K, 23029 kPa, x1 = 0.0173	818.53
328 K, 23041 kPa, x1 = 0.0235	825.35
328 K, 23052 kPa, x1 = 0.0093	807.08
328 K, 23065 kPa, x1 = 0.0144	813.57
328 K, 24012 kPa, x1 = 0.0144	821.99
328 K, 24037 kPa, x1 = 0.0235	833.62
328 K, 24065 kPa, x1 = 0.0093	816.43
328 K, 24082 kPa, x1 = 0.0173	827.53
328 K, 24770 kPa, x1 = 0.0144	828.36
328 K, 24838 kPa, x1 = 0.0173	833.72
328 K, 25066 kPa, x1 = 0.0235	841.58
328 K, 25067 kPa, x1 = 0.0093	825.06
328.08 K, 11635 kPa, x1 = 0.0065	518.62
